Tests used:
Experiment in all cases: relative viability (nuclei count vs DMSO), 5 days (fraction); higher = more cells survive
[1] = compound: CC1=C(CC(=O)O)c2cc(F)ccc2/C1=C\c1ccc([S+](C)[O-])cc1 [Sulindac] + CS(=O)(=O)N1CCN(Cc2cc3nc(-c4cccc5[nH]ncc45)nc(N4CCOCC4)c3s2)CC1 [Pictilisib] (partner 1 µM)
Outline: (§1)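 Nuclei were stained with Hoechst during a one-step fixation (final 0.05% Triton X-100, 1% formaldehyde, 1 ug/ml Hoechst) carried out 5 days after dosing, then counted on 4× images. The cells, lung cancer lines in 1536-well plates, had been dosed by pin tool the day after seeding with one drug alone or a fixed anchor-drug dose plus five library-drug doses (not always all listed) in √10 steps. Relative viability is the nuclei count in treated wells divided by that in vehicle wells, and each value is the median of duplicate plates.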

[2] = compound: O=c1[nH]cc(F)c(=O)[nH]1 [5-Fluorouracil] + C[C@]1(O)C[C@@H](c2nc(-c3ccc4ccc(-c5ccccc5)nc4c3)c3c(N)nccn32)C1 [Linsitinib] (partner 1 µM)
Outline: as §1

[3] = compound: CN[C@@H]1C[C@H]2O[C@@](C)([C@@H]1OC)n1c3ccccc3c3c4c(c5c6ccccc6n2c5c31)C(=O)NC4 [Staurosporine] + CS(=O)(=O)CCNCc1ccc(-c2ccc3ncnc(Nc4ccc(OCc5cccc(F)c5)c(Cl)c4)c3c2)o1 [Lapatinib] (partner 2 µM)
Outline: as §1

[4] = compound: O=c1[nH]cc(F)c(=O)[nH]1 [5-Fluorouracil] + CC1(C)CCC(c2ccc(Cl)cc2)=C(CN2CCN(c3ccc(C(=O)NS(=O)(=O)c4ccc(N[C@H](CCN5CCOCC5)CSc5ccccc5)c(S(=O)(=O)C(F)(F)F)c4)cc3)CC2)C1 [Navitoclax] (partner 0.5 µM)
Outline: as §1

For NCI-H520, the relative viability ([1]; first compound 0.08 µM) was 0.336, the relative viability ([1]; first compound 0.253 µM) was 0.3 and the relative viability ([1]; first compound 0.8 µM) was 0.235. For the same cell line, the relative viability ([1]; first compound 2.53 µM) was 0.251, the relative viability ([1]; first compound 8 µM) was 0.366 and the relative viability ([2]; first compound 0.02 µM) was 0.892. For the same cell line, the relative viability ([2]; first compound 0.2 µM) was 1.07, the relative viability ([2]; first compound 0.6325 µM) was 0.751 and the relative viability ([2]; first compound 2 µM) was 0.356. The relative viability ([3]; first compound 0.005 µM) was 0.935, the relative viability ([3]; first compound 0.01581 µM) was 0.595 and the relative viability ([3]; first compound 0.05 µM) was 0.514. The relative viability ([3]; first compound 0.1581 µM) was 0.178, the relative viability ([3]; first compound 0.5 µM) was 0.13 and the relative viability ([4]; first compound 0.02 µM) was 0.81. The relative viability ([4]; first compound 0.2 µM) was 1.19, the relative viability ([4]; first compound 0.6325 µM) was 0.873 and the relative viability ([4]; first compound 2 µM) was 0.406.
